Test results from patent publication US20200255438A1, “NOVEL SALTS” (priority 2017, published 2020).

Columns and labels:
[1] = Aqueous solubility (equilibration in de-ionised water, HPLC); type: physicochemical; conditions: for Form retention of solids after solubility equilibration (XRPD): 24 hours in de-ionised water, solids dried at 50° C., re-analysed by XRPD; for solubility at 24 h: de-ionised water, water, thermodynamic from solid, 25° C.
Experimental: […] Solids were isolated by filtration to deliver clear liquors that were analyzed for API content by HPLC vs a known standard of free base (typical dilution of 50× using deionized water for salt candidates to deliver a working concentration in line with the standard at 0.5 mg/ml). The solids were dried at 50° C. and re-analysed by XRPD to confirm form retention—both mesylate and citrate retain form.

[2] = Solid form stability under extremes of humidity (XRPD post DVS/GVS); type: physicochemical; conditions: 0% RH and 90% RH, XRPD vs input
From the text: FIG. 1: XRPD patterns of citrate salt (Example 1), Ex-DVS examination at 0% RH, (top panel), 90% RH, (middle panel) and input (bottom panel).
FIG. 3: XRPD data for mesylate salt (Example 2) exposed to extremes of humidity post GVS cycle: input (bottom panel) output 0% (top panel) output 90% (middle panel).
X-Ray Powder Diffraction (XRPD)
X-Ray Powder Diffraction patterns were collected on a PANalytical diffractometer using Cu Kα radiation (45 kV, 40 mA), θ−θ goniometer, focusing mirror, divergence slit (½″), soller slits at both incident and divergent beam (4 mm) and a PIXcel detector. The software used for data collection was X'Pert Data Collector, version 2.2f and the data was presented using X'Pert Data Viewer, version 1.2d.
XRPD patterns were acquired under ambient conditions via a transmission foil sample stage (polyimide—Kapton, 12.7 μm thickness film) under ambient conditions using a PANalytical X'Pert PRO. The data collection range was 2.994-35°2θ with a continuous scan speed of 0.202004°s^−1.

Cc1cc(-c2ccc(C(F)(F)F)cc2)nc([C@H]2CC[C@@]3(CCN(C)C3=O)N2)n1.O=C(O)CC(O)(CC(=O)O)C(=O)O [Example 1, (2R,5S)-7-Methyl-2-[4-methyl-6-[4-(trifluoromethyl)-phenyl]pyrimidin-2-yl]-1,7-diazaspiro[4.4]nonan-6-one citric acid (citrate) salt]
Form retention of solids after solubility equilibration (XRPD) [1]: retain form | solubility at 24 h [1]: 22 mg/mL | Crystalline form stability / hydrate formation under different extremes of humidity (XRPD) [2]: no tendency to form hydrates

CS(=O)(=O)O.Cc1cc(-c2ccc(C(F)(F)F)cc2)nc([C@H]2CC[C@@]3(CCN(C)C3=O)N2)n1 [Example 2, (2R,5S)-7-Methyl-2-[4-methyl-6-[4-(trifluoromethyl)-phenyl]pyrimidin-2-yl]-1,7-diazaspiro[4.4]nonan-6-one methanesulfonic acid (mesylate) salt]
Form retention of solids after solubility equilibration (XRPD) [1]: retain form | solubility at 24 h [1]: 65 mg/mL | Crystalline form stability / hydrate formation under different extremes of humidity (XRPD) [2]: no tendency to form hydrates
